# In patent US7932284B2, “Indole sulfonamide modulators of progesterone receptors” (Eli Lilly and Company, priority 2006, dated 2011):
# What was measured:
# [1] = molecular target: T1, human AR (androgen receptor) (Homo sapiens, UniProt P10275); assay: AR competition binding assay (HEK293 cell lysate); conditions: 0.36 nM 3H-methyltrienolone, 293-AR lysate
# T1 construct: expressed in transfected cells; host or cells: HEK293
# T1 sequence (P10275 1-920): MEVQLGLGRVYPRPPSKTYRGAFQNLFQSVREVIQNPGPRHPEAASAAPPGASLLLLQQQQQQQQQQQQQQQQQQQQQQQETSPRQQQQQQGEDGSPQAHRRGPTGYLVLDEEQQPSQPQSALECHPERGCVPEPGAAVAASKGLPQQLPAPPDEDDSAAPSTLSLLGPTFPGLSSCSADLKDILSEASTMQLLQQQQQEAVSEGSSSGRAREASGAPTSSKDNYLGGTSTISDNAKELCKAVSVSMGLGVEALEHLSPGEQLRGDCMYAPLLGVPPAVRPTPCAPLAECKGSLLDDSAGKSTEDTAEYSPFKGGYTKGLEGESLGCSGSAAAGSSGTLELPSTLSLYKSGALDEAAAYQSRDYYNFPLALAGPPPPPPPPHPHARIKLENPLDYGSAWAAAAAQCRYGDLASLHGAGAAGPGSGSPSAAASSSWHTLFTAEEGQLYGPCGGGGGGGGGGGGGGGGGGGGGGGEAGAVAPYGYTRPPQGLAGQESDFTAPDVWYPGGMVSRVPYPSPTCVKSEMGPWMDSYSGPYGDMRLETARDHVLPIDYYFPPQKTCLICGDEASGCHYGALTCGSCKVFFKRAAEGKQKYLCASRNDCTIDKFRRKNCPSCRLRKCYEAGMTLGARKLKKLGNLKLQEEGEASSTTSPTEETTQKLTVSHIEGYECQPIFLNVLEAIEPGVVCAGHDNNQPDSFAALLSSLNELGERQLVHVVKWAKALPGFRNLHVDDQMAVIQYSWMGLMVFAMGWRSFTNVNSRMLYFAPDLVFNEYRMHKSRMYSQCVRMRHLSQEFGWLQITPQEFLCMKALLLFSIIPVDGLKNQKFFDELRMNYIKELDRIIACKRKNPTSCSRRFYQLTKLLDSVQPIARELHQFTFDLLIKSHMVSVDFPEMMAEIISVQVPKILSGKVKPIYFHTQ
# Experimental: (§1) Cell lysates from HEK293 cells overexpressing human GR (glucocorticoid receptor), AR (androgen receptor), MR (mineralocorticoid receptor) or PR (progesterone receptor) are used for competition binding assays to determine Ki values for compounds of interest. Briefly, competition binding assays are run in a buffer containing 20 mM HEPES, pH 7.6, 0.2 mM EDTA, 75 mM NaCl, 1.5 mM MgCl2, 20% glycerol, 20 mM sodium molybdate, 0.2 mM DTT, 20 ug/ml aprotinin, and 20 ug/ml leupeptin, using either 0.3 nM ^3H-dexamethasone for GR binding, 0.36 nM ^3H-methyltrienolone for AR binding, 0.25 nM ^3H-aldosterone for MR binding, or 0.29 nM ^3H-methyltrienolone for PR binding, and either 20 ug 293-GR lysate, 22 ug 293-AR lysate, 20 ug 293-MR lysate or 40 ug 293-PR lysate per well. Competing compounds are added at various concentrations in half-log increments. Non-specific binding is determined in the presence of 500 nM dexamethasone for GR binding, 500 nM aldosterone for MR binding, or 500 nM methyltrienolone for AR and PR binding. The binding reaction (140 μl) is incubated overnight at 4° C., then 70 μl of cold charcoal-dextran buffer (containing per 50 ml of assay buffer, 0.75 g of charcoal and 0.25 g of dextran) is added to each reaction. Plates are mixed 8 minutes on an orbital shaker at 4° C. Plates are then centrifuged at 3,000 rpm at 4° C. for 10 minutes. An aliquot of 120 μl of the mixture is transferred to another 96-well plate and 175 μl of Wallac Optiphase “Hisafe 3” scintillation fluid is added to each well. Plates are sealed and shaken vigorously on an orbital shaker. After an incubation of 2 hrs, plates are read in a Wallac Microbeta counter. […] The Kd for ^3H-dexamethasone for GR binding, ^3H-methyltrienolone for AR binding, ^3H-aldosterone for MR binding, or ^3H-methyltrienolone for PR binding, is determined by saturation binding. The IC50 values for compounds are converted to Ki using Cheng-Prusoff equation and the Kd determined by saturation binding assay.
# [2] = molecular target: T2, human MR (mineralocorticoid receptor) (Homo sapiens, UniProt P08235); assay: MR competition binding assay (HEK293 cell lysate); conditions: 0.25 nM 3H-aldosterone, 293-MR lysate
# T2 construct: expressed in transfected cells; host or cells: HEK293
# T2 sequence (P08235 1-984): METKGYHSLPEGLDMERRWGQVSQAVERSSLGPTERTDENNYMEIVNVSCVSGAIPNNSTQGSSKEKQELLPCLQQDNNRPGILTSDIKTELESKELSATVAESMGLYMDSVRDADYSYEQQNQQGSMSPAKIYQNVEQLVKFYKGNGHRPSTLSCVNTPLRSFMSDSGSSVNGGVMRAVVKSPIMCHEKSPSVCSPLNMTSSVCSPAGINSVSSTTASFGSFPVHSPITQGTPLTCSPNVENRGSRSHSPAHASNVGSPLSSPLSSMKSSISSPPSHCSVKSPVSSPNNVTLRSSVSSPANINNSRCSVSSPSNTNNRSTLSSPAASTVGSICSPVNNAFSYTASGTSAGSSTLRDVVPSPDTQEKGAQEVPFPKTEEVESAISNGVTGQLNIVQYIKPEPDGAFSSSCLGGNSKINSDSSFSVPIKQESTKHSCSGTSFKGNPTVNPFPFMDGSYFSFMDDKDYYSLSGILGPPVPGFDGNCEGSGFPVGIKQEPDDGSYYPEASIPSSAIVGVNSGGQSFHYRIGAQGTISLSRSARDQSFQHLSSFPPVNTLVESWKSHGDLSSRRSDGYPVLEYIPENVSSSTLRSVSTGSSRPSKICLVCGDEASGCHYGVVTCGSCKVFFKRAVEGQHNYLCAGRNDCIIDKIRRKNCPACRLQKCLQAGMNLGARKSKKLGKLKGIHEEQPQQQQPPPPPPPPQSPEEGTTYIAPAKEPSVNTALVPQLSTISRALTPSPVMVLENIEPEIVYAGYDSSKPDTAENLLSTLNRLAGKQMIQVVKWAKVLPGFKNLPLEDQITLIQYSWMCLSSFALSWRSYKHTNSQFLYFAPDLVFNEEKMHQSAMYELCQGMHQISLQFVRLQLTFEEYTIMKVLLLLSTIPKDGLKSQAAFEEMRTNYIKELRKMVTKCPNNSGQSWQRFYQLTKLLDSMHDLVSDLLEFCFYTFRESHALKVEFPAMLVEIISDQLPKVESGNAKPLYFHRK
# Experimental: as §1
Structure (SMILES),Ki [1] [µM],Ki [2] [µM]
"CC(C)n1cc(-c2ccc3c(c2)COC3=O)c2ccc(NS(C)(=O)=O)cc21 [Example 97, N-[1-Isopropyl-3-(1-oxo-1,3-dihydro-isobenzofuran-5-yl)-1H-indol-6-yl]-methanesulfonamide]",> 1,> 1
"CC(C)n1cc(-c2ccc(C#N)cc2)c2ccc(NS(=O)(=O)C(F)(F)F)cc21 [Example 98, N-[3-(4-Cyano-phenyl)-1-isopropyl-1H-indol-6-yl]-C,C,C-trifluoro-methanesulfonamide]",> 1,> 1
"CC(C)n1cc(-c2ccc(C#N)cc2)c2ccc(NS(=O)(=O)N3CCOCC3)cc21 [Example 100, Morpholine-4-sulfonic acid [3-(4-cyano-phenyl)-1-isopropyl-1H-indol-6-yl]-amide]",> 1,> 1
"CC(C)n1cc(-c2ccc3c(cnn3C)c2)c2ccc(NS(C)(=O)=O)cc21 [Example 107, N-[1-Isopropyl-3-(1-methyl-1H-indazol-5-yl)-1H-indol-6-yl]-methanesulfonamide]",> 1,> 1
